Data set [1] has as its system Escherichia coli. Description: Agar well inhibition zone test against bacteria, Escherichia coli (Table III). The settings on record: quantity per well giving inhibition zone (500, 50, 5 μg tested); nutrient agar, 37°, 24 hours.
Method: The efficacy of the compounds against bacteria was tested as follows:
The test organisms, in this case Staphylococcus aureus and Escherichia coli, were inoculated on nutrient agar as described in Example 12, wells were punched, and the solutions of the compounds were transferred to fill the wells. The quantity of compound in the wells amounted again to 500 μg, 50 μg and 5 μg.
After incubation a 37° for 24 hours the quantity of compound was determined at which an inhibition of the organism's growth, in the form of an inhibition zone around the corresponding well, occurred.
Data set [2] deals with C. albicans. Description: Minimum inhibitory concentration for fungi in presence of serum, C. albicans (Table VI). Type of data set: cell-based. The note with it: Candida albicans; Sabouraud nutrient broth + 10% bovine serum, 28°C, 48 hours.
The test system of data set [3] is A. niger. Description: Minimum inhibitory concentration for fungi, tube dilution, A. niger (Table IV). The note with it: Aspergillus niger, 48 h, read-out: Minimum Inhibitory Concentration, A. niger.
Method: (§1) A tube dilution series of the respective compound in Sabouraud nutrient broth, whose individual tubes contained concentrations of 1024 μg, 512 μg, 256 μg, 128 μg, 64 μg, 32 μg, 16 μg, 8 μg, 4 μg, 2 μg, 1.1 μg and 0.5 μg/ml, was prepared and inoculated with a photometrically standardized suspension of the test organisms or the spores thereof.
Data set [4] concerns A. niger. Description: Minimum inhibitory concentration for fungi in presence of serum, A. niger (Table VI). Type of data set: cell-based. The note with it: Aspergillus niger; Sabouraud nutrient broth + 10% bovine serum, 28°C, 48 hours.
Data set [5] has as its system C. albicans. Description: Minimum inhibitory concentration for fungi, tube dilution, C. albicans (Table IV). The settings on record: Candida albicans, 48 h, read-out: Minimum Inhibitory Concentration, C. albicans.
Method: as §1
The subject of data set [6] is Aspergillus niger. Description: Agar well inhibition zone test against fungi, Aspergillus niger (Table II). The note with it: quantity per well giving inhibition zone (500, 50, 5 μg tested); Sabouraud agar, 28°, 48 hours.
The nature of data set [7]: Solubility in water. The settings on record: hydrochlorides or oxalates, read-out: solubilities (in water). It counts as physicochemical. On the procedure:
The following list contains examples of those compounds which are made according to the methods disclosed. (The individual compounds are identified by elementary analyses and infrared spectra, by ultra-violet or nuclear resonance spectra, if necessary.) Individual melting points and solubilities (in water) are also given as is the method by which each compound is prepared.
The melting points and solubilities are given for the Hydrochlorides I - XVI; XVIII - XXVII; XXIX - XXXV; XXXVII - XLII; XLIV - LXII; LXIV - LXVII, and the Oxalates XVII; […]; XXXVI; LXIII.

For data set [8], the system named is Candida albicans. Description: Agar well inhibition zone test against fungi, Candida albicans (Table II). The settings on record: quantity per well giving inhibition zone (500, 50, 5 μg tested); Sabouraud agar, 28°, 48 hours.
Method: The efficacy of the compounds against fungi was tested as follows:
The test organisms, in this case the blastomycete Candida albicans and the mold Aspergillus niger, were inoculated onto Sabouraud agar plates by pouring a photometrically adjusted standard suspension of organisms on the plate. After inoculation, wells with a diameter of 5.0 mm were punched in the agar, and filled with 50 ul of the compound solution mentioned before. The quantity of compound applied thus amounted to 500 μg, 50 μg and 5 μg. After incubation at 28° for 48 hours, the quantity of compound was determined at which an inhibition of the organism's growth, in form of an inhibition zone around the corresponding well, was present.
Data set [9] concerns Staphylococcus aureus. Kind of data set: Agar well inhibition zone test against bacteria, Staphylococcus aureus (Table III). The note with it: quantity per well giving inhibition zone (500, 50, 5 μg tested); nutrient agar, 37°, 24 hours.
Data set [10] concerns Staph. aureus. Kind of data set: Minimum inhibitory concentration for bacteria, tube dilution, Staph. aureus (Table V). The note with it: Staphylococcus aureus, 48 h, read-out: Minimum Inhibitory Concentration, Staph. aureus.
Method: A tube dilution series of the respective compound in nutrient broth whose individual tubes contained concentrations of 1024 μg, 512 μg, 256 μg, 128 μg, 64 μg, 32 μg, 1 μg, 8 μg, 4 μg, 2 μg, 1.1 μg and 0.5 μg/ml was prepared and inoculated with a photometrically standardized suspension of the test organisms.

Converted amounts (≈) assume the structure as drawn. Where only a bound is given, the exact number is not on record here.

With `CC(C(=Cc1ccccc1)Cc1ccccc1)N1CCN(CCN2CCN(C)CC2)CC1` (stereo not drawn) [XXXVI, 1-phenyl-2-benzyl-3-{4'-[β-(4"-methylpiperazino-1")-ethyl]-piperazino-1'}-butene-1], in [1], the “Inhibition Area at μg, E. coli” value was more than 500 µg. Moreover, the MIC in [2] is 32 µg/mL; in data set [3] it was 2 µg/mL (≈ 4.62 µM); in data set [4], 8 µg/mL; in [5], 4 µg/mL (≈ 9.25 µM). Further, the “Inhibition Area at μg, Asp. niger” value in data set [6] came out at 50 µg. In addition, the solubility in [7] was less than 10 mg/mL. The “Inhibition Area at μg, Cand. albicans” value in data set [8] came to 50 µg. The “Inhibition Area at μg, Staph. aureus” value in data set [9] was determined as 500 µg.
`CC(C(=Cc1ccccc1)Cc1ccccc1)N1CCN(CCN2CCN(Cc3ccccc3)CC2)CC1` (stereo not drawn) [XXXVII, 1-phenyl-2-benzyl-3-{4'-[β-(4"-benzylpiperazino-1")-ethyl]-piperazino-1'}-butene-1]: the “Inhibition Area at μg, E. coli” value in data set [1] worked out at 500 µg. Moreover, the MIC in data set [2] was 512 µg/mL; in data set [3], 128 µg/mL (≈ 252 µM); in data set [5] it was 8 µg/mL (≈ 15.7 µM); in data set [10], 16 µg/mL (≈ 31.4 µM). Besides, the “Inhibition Area at μg, Asp. niger” value in [6] was 5 µg. Besides, the solubility in data set [7] is 50 mg/mL (≈ 98300 µM). The “Inhibition Area at μg, Cand. albicans” value in [8] was 5 µg. The “Inhibition Area at μg, Staph. aureus” value in [9] was 5 µg.
Turning to `CC1CCN(CCN2CCN(C(C)C(=Cc3ccccc3)Cc3ccccc3)CC2)CC1` (stereo not drawn) [XXXV, 1-phenyl-2-benzyl-3-{4'-[β-(4"-methylpiperidino)-ethyl]-piperazino-1'}-butene-1], the “Inhibition Area at μg, E. coli” value in data set [1] was 500 µg. Further, the MIC was 32 µg/mL in data set [2]; 8 µg/mL (≈ 18.5 µM) in data set [3]; 128 µg/mL in [4]; 8 µg/mL (≈ 18.5 µM) in [5]; 256 µg/mL (≈ 593 µM) in data set [10]. In [6], the “Inhibition Area at μg, Asp. niger” value came out at 50 µg. Also, the solubility in data set [7] is 10 mg/mL (≈ 23200 µM). For the same compound, in data set [8], the “Inhibition Area at μg, Cand. albicans” value stood at 50 µg. The “Inhibition Area at μg, Staph. aureus” value in [9] came to 50 µg.
Consider `OC(CCN1CCN(CCN2CCCCC2)CC1)(Cc1ccccc1)Cc1ccccc1` [LX, 1-phenyl-2-benzyl-4-[4'-(β-piperidinoethyl)-piperazino-1']-butanol-2], for which the “Inhibition Area at μg, E. coli” value in data set [1] is 500 µg. The values for the MIC in data set [3] and in [4] were 64 µg/mL (≈ 147 µM) and 8 µg/mL, respectively. The “Inhibition Area at μg, Asp. niger” value in data set [6] was determined as 50 µg. Also, the solubility in data set [7] came to 100 mg/mL (≈ 230000 µM). In addition, the “Inhibition Area at μg, Cand. albicans” value in data set [8] was determined as 500 µg. In [9], the “Inhibition Area at μg, Staph. aureus” value came out at 500 µg.
With `CC(N1CCN(CCN2CCN(C)CC2)CC1)C(O)(Cc1ccccc1)Cc1ccccc1` (stereo not drawn) [X, 1-phenyl-2-benzyl-3-{4'-[β-(4"-methyl-piperazino-1")-ehtyl]-piperazino-1'}-butanol-2], in [1], the “Inhibition Area at μg, E. coli” value was 500 µg. The MIC in data set [2] was 16 µg/mL; in [3] it was 16 µg/mL (≈ 35.5 µM); in data set [4], 16 µg/mL; in [5], 16 µg/mL (≈ 35.5 µM). The “Inhibition Area at μg, Asp. niger” value in data set [6] is 50 µg. In addition, the solubility in data set [7] was found to be 100 mg/mL (≈ 222000 µM). The “Inhibition Area at μg, Cand. albicans” value in [8] came out at 50 µg. Besides, in data set [9], the “Inhibition Area at μg, Staph. aureus” value came to 500 µg.
Turning to `CC(C(=Cc1ccccc1)Cc1ccccc1)N1CCN(CCN(C(C)C)C(C)C)CC1` (stereo not drawn) [XXVIII, 1-phenyl-2-benzyl-3-[4'-(β-diisopropylamino-ethyl)-piperazino-1']-butene-1], the “Inhibition Area at μg, E. coli” value in data set [1] was found to be 500 µg. For the same compound, the MIC in data set [2] was 256 µg/mL; in data set [3], 32 µg/mL (≈ 73.8 µM); in data set [4] it was more than 1020 µg/mL; in data set [5], 64 µg/mL (≈ 148 µM); in [10], 64 µg/mL (≈ 148 µM). Besides, the “Inhibition Area at μg, Asp. niger” value in data set [6] is 50 µg. Also, the solubility in [7] came to 10 mg/mL (≈ 23100 µM). Further, the “Inhibition Area at μg, Cand. albicans” value in [8] came out at 50 µg. For the same compound, in data set [9], the “Inhibition Area at μg, Staph. aureus” value was found to be 50 µg.
With `Cc1cccc(CC(O)(Cc2cccc(C)c2)C(C)N2CCN(CCN3CCCCC3)CC2)c1` (stereo not drawn) [XXI, 1-m-tolyl-2-m-methylbenzyl-3-[4'-(β-piperidino-ethyl)-piperazino-1']-butanol-2], the “Inhibition Area at μg, E. coli” value in data set [1] is more than 500 µg. In addition, the MIC in data set [2] stood at 256 µg/mL; in [3] it was 4 µg/mL (≈ 8.63 µM); in [4] it was 128 µg/mL; in data set [5] it was 8 µg/mL (≈ 17.3 µM); in data set [10] it was 64 µg/mL (≈ 138 µM). Also, the “Inhibition Area at μg, Asp. niger” value in data set [6] came out at 5 µg. Also, in data set [7], the solubility was determined as 100 mg/mL (≈ 216000 µM). In addition, in data set [8], the “Inhibition Area at μg, Cand. albicans” value was 50 µg. The “Inhibition Area at μg, Staph. aureus” value in data set [9] amounted to 5 µg.
On to `CC(c1ccccc1)N1CCN(CCN2CCN(C(C)C(O)(Cc3ccccc3)Cc3ccccc3)CC2)CC1` (stereo not drawn) [XIII, 1-phenyl-2-benzyl-3-{4'-[β-(4"-α-phenethyl-piperazino-1")-ethyl]-piperazino-1'}-butanol-2], for which, in data set [1], the “Inhibition Area at μg, E. coli” value is 500 µg. Also, the figures for the MIC in [2], in data set [4] and in data set [10] were 513 µg/mL, 256 µg/mL and 32 µg/mL (≈ 59.2 µM), respectively. Besides, in data set [6], the “Inhibition Area at μg, Asp. niger” value was found to be 500 µg. The solubility in data set [7] worked out at 100 mg/mL (≈ 185000 µM). In [8], the “Inhibition Area at μg, Cand. albicans” value worked out at 500 µg. Moreover, the “Inhibition Area at μg, Staph. aureus” value in data set [9] came to 5 µg.
For the compound `OC(Cc1ccccc1)(Cc1ccccc1)CN1CCN(CCN2CCCCC2)CC1` [LIX, β,β '-diphenyl-β"-[4'-(β-piperidino-ethyl)-piperazino-1']-t-butanol], the “Inhibition Area at μg, E. coli” value in data set [1] turned out to be 500 µg. For the same compound, the figures for the MIC in data set [3], in data set [4] and in data set [10] were 64 µg/mL (≈ 152 µM), 64 µg/mL and 1020 µg/mL (≈ 2430 µM), respectively. Further, in data set [6], the “Inhibition Area at μg, Asp. niger” value came out at 5 µg. In addition, the solubility in data set [7] is 100 mg/mL (≈ 237000 µM). For the same compound, in data set [8], the “Inhibition Area at μg, Cand. albicans” value stood at 500 µg. For the same compound, the “Inhibition Area at μg, Staph. aureus” value in data set [9] came out at 50 µg.
In the case of `CC(C(=Cc1ccccc1)Cc1ccccc1)N1CCN(CCN2CCN(C(C)c3ccccc3)CC2)CC1` (stereo not drawn) [XXXVIII, 1-phenyl-2-benzyl-3-{4'-[β-(4"-α-phenethyl-piperazino-1")-ethyl]-piperazino-1'}-butene-1], in data set [1], the “Inhibition Area at μg, E. coli” value was found to be 500 µg. The MIC in data set [2] is more than 1020 µg/mL; in data set [4] it was more than 1020 µg/mL; in data set [10] it was 128 µg/mL (≈ 245 µM). The “Inhibition Area at μg, Asp. niger” value in data set [6] came out at 500 µg. Besides, the solubility in data set [7] came to 100 mg/mL (≈ 191000 µM). The “Inhibition Area at μg, Cand. albicans” value in [8] was 500 µg. Further, in data set [9], the “Inhibition Area at μg, Staph. aureus” value came out at 5 µg.
For the compound `CC(N1CCN(Cc2ccncc2)CC1)C(O)(Cc1ccccc1)Cc1ccccc1` (centres unmarked) [XXIV, 1-phenyl-2-benzyl-3-[4'-(4"-pyridylmethyl)-piperazino-1']-butanol-2], the “Inhibition Area at μg, E. coli” value in data set [1] was more than 500 µg. Besides, the MIC in data set [2] and in [4] was 128 µg/mL throughout. The “Inhibition Area at μg, Asp. niger” value in data set [6] was more than 500 µg. In addition, the solubility in data set [7] turned out to be 100 mg/mL (≈ 241000 µM). Also, the “Inhibition Area at μg, Cand. albicans” value in [8] was more than 500 µg. Moreover, in data set [9], the “Inhibition Area at μg, Staph. aureus” value is more than 500 µg.
For the compound `CN1CCN(CCCCCCN2CCN(CCC(=Cc3ccccc3)Cc3ccccc3)CC2)CC1` [LXV, 1-phenyl-2-benzyl-4-[4'-w-(4"-methyl-piperazino-1")-n-hexyl-piperazino-1']-butene-1], the “Inhibition Area at μg, E. coli” value in [1] was 500 µg. The MIC in data set [2] was determined as 32 µg/mL; in [3], 8 µg/mL (≈ 16.4 µM); in data set [4] it was 8 µg/mL; in [5] it was 32 µg/mL (≈ 65.5 µM). The “Inhibition Area at μg, Asp. niger” value in [6] worked out at 5 µg. Also, the solubility in [7] is 100 mg/mL (≈ 205000 µM). Moreover, the “Inhibition Area at μg, Cand. albicans” value in data set [8] stood at 5 µg. Besides, the “Inhibition Area at μg, Staph. aureus” value in data set [9] was 500 µg.

The values are drawn from patent US3947411A, “Novel 1-aryl-2-arylalkyl-3-or-4-[4'-(substituted-alkyl)piperazino-1']butanols- 2-or-butenes-1, and methods of manufacture thereof” (Warner-Lambert Company, priority 1972, dated 1976).
